In ChEMBL document CHEMBL3886652, “Arlethynyl derivatives” (2016) one finds EC50 data, which are given here for two compounds.

A word on the EC50: it is the concentration that produces a half-maximal response.

The target of this assay is Metabotropic glutamate receptor 5 (Homo sapiens, UniProt P41594). Nature of the assay: Intracellular Ca2+ Mobilization Assay: A monoclonal HEK-293 cell line stably transfected with a cDNA encoding for the human mGlu5a receptor was generated; for the work with mGlu5 Positive Allosteric Modulators (PAMs), a cell line with low receptor expression levels and low constitutive receptor activity was selected to allow the differentiation of agonistic versus PAM activity. Cells were cultured according to standard protocols (Freshney, 2000) in Dulbecco's Modified Eagle Medium with high glucose supplemented with 1 mM glutamine, 10% (vol/vol) heat-inactivated bovine calf serum, Penicillin/Streptomycin, 50 μg/ml hygromycin and 15 μg/ml blasticidin (all cell culture reagents and antibiotics from Invitrogen, Basel, Switzerland). bout 24 hrs before an experiment, 5×10^4 cells/well were seeded in poly-D-lysine coated, black/clear-bottomed 96-well plates. The cells were loaded with 2.5 μM Fluo-4AM in loading buffer (1×HBSS, 20 mM HEPES) for 1 hr at 37 °C. and washed five times with loading buffer. The cells were transferred into a Functional Drug Screening System 7000 (Hamamatsu, Paris, France), and 11 half logarithmic serial dilutions of test compound at 37 °C. were added and the cells were incubated for 10-30 min. with on-line recording of fluorescence. […]. In kind it is cell-based, HEK293. (Calcium assays in cells follow changes in intracellular calcium, usually with a dye or a luminescent sensor.)
Metabotropic glutamate receptor 5, sequence (P41594 whole entry): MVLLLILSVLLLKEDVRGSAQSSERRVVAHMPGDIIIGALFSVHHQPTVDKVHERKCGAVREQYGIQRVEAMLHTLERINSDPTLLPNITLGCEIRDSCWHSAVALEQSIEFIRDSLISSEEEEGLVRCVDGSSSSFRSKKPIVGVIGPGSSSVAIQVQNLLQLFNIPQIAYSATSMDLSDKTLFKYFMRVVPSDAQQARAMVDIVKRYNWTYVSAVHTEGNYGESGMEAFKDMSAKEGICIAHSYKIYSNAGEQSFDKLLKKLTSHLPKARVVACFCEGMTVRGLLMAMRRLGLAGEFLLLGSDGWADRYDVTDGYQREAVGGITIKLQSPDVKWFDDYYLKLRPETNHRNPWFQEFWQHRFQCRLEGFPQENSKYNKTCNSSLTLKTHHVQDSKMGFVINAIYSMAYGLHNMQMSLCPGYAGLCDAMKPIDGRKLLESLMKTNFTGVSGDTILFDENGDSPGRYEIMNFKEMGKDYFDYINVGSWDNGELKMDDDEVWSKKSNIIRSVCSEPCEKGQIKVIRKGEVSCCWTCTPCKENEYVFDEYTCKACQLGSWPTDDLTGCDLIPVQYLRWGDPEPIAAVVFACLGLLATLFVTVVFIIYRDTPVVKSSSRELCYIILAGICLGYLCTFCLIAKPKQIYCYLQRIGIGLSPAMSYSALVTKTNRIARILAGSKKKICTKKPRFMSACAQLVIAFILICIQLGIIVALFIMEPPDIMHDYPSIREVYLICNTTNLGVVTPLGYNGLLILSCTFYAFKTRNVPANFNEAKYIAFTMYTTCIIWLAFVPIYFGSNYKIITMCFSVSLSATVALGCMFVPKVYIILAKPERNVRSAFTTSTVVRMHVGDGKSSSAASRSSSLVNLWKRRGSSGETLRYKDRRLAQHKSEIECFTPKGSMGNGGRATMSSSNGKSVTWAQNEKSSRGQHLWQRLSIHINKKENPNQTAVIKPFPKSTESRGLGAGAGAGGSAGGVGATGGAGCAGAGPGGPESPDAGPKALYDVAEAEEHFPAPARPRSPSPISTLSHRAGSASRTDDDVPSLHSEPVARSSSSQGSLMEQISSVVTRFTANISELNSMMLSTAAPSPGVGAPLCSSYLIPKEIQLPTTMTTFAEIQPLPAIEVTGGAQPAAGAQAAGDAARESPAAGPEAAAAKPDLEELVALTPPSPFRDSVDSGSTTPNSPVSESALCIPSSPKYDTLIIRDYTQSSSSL

Regarding `CCN1C(=O)N(c2ccc(C#Cc3cccnc3)cn2)C2CCCCC21` (configuration not stated), the EC50 came to 69 nM.

As for `CN1CC(C)(C)CN(c2ccc(C#Cc3ccccc3)cn2)C1=O`, the EC50 came out at 33 nM.
